Converted amounts (≈) assume the structure as drawn. Where a name gives a salt, the structure may show the parent alone.
How the values were obtained:
[1] = tested on: non replicating phase of M. tuberculosis (H37Rv with a plasmid with an acetimidase promoter driving a luciferase gene); experiment: microbe, parasite or virus in culture; assay type: cell-based; settings: non replicating M. tuberculosis H37Rv luciferase strain; for MIC: Mycobacterium tuberculosis, read-out: LORA (TB growth inhibition, MIC)
[2] = tested on: H37Rv strain of M. tuberculosis; experiment: Alamar Blue Susceptibility Test (MABA); assay type: cell-based; settings: Mycobacterium tuberculosis; H37Rv strain of M. tuberculosis; Alamar Blue; read-out: MABA (TB growth inhibition, colourimetric assay)

For `CCC(CC)(Nc1nc(N2CCCC2)nc2ccccc12)c1ccccc1` [Compound 124, N-(3-Phenylpentan-3-yl)-2-(pyrrolidin-1-yl)quinazolin-4-amine], the MIC [1] was 10 to 50 µM (≈ 3.61 to 18 µg/mL) and the MIC [2] was under 10 µM.

`Clc1ccc(CNc2nc(NCc3ccccc3)c3ccccc3n2)cc1` [Compound 127, N^4-Benzyl-N^2-(4-chlorobenzyl)quinazoline-2,4-diamine hydrochloride] gave an MIC [1] of under 10 µM and an MIC [2] of under 10 µM.

`FC(F)(F)c1ccc(CNc2nc(NCc3ccccc3)c3ccccc3n2)cc1` [Compound 128, N^4-Benzyl-N^2-(4-(trifluoromethyl)benzyl)quinazoline-2,4-diamine hydrochloride] gave an MIC [1] of under 10 µM and an MIC [2] of under 10 µM.

For `c1ccc(CNc2nc(N3Cc4ccccc4C3)nc3ccccc23)cc1` [Compound 130, N-Benzyl-2-(isoindolin-2-yl)quinazolin-4-amine], the “LORA (TB growth inhibition, MIC)” value [1] was “−” and the MIC [2] was under 10 µM.

For `c1ccc(CNc2nc(NC3Cc4ccccc4C3)nc3ccccc23)cc1` [Compound 131, N^4-Benzyl-N^2-(2,3-dihydro-1H-inden-2-yl)quinazoline-2,4-diamine], the MIC [1] was under 10 µM and the MIC [2] was under 10 µM.

`c1ccc(CNc2nc(N3CCC(c4ccccc4)CC3)nc3ccccc23)cc1` [Compound 132, N-Benzyl-2-(4-phenylpiperidin-1-yl)quinazolin-4-amine hydrochloride] showed an MIC [1] of under 10 µM and an MIC [2] of under 10 µM.

In the case of `c1ccc(CNc2nc(N3CCN(c4ccccc4)CC3)nc3ccccc23)cc1` [Compound 133, N-Benzyl-2-(4-phenylpiperazin-1-yl)quinazolin-4-amine hydrochloride], the MIC [1] is reported as 10 to 50 µM and the MIC [2] is reported as under 10 µM.

Compound `Clc1ccc(N2CCN(c3nc(NCc4ccccc4)c4ccccc4n3)CC2)cc1` [Compound 134, N-Benzyl-2-(4-(4-chlorophenyl)piperazin-1-yl)quinazolin-4-amine hydrochloride] has an MIC [1] of 10 to 50 µM and an MIC [2] of under 10 µM.

`FC(F)(F)c1ccc(N2CCN(c3nc(NCc4ccccc4)c4ccccc4n3)CC2)cc1` [Compound 135, N-Benzyl-2-(4-(4-(trifluoromethyl)phenyl)piperazin-1-yl)quinazolin-4-amine hydrochloride] gave an MIC [1] of 10 to 50 µM and an MIC [2] of under 10 µM.

With `COc1ccc(N2CCN(c3nc(NCc4ccccc4)c4ccccc4n3)CC2)cc1` [Compound 136, N-Benzyl-2-(4-(4-methoxyphenyl)piperazin-1-yl)quinazolin-4-amine hydrochloride] the MIC [1] was 10 to 50 µM and the MIC [2] was under 10 µM.

Source: US20100317607A1, “USE OF COMPOUNDS FOR PREPARING ANTI-TUBERCULOSIS AGENTS” (INFECTIOUS DISEASE RESEARCH INSTITUTE, priority 2007, published 2010)
